{"source": "patent US5216001A", "about": "“Indole derivatives” (H. Lunbeck A/S, priority 1990, dated 1993)", "key": {"[1]": {"target": "T1, serotonin S2 (5-HT2) receptors (Rattus norvegicus, UniProt P14842)", "T1 construct": "cortical tissue is dissected and weighed; from tissue; host or cells: cerebral cortex membranes of male Wistar (Mol:Wist) rats", "T1 sequence (P14842 whole entry)": "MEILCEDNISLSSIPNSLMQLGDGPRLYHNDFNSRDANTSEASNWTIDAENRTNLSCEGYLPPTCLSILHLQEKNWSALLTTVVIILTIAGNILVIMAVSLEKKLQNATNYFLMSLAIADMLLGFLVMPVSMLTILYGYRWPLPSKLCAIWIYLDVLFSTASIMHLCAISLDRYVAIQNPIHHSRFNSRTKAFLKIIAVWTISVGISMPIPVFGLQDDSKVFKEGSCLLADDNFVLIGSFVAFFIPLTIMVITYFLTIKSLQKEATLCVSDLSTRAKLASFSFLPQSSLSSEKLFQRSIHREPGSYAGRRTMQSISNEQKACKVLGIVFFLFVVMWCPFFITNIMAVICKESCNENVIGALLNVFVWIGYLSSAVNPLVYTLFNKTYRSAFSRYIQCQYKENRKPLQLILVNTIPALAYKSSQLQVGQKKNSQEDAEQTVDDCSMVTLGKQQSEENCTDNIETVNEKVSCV", "assay": "inhibition of 3H-ketanserin binding to serotonin S2 (5-HT2) receptors in rat cortex in vitro", "conditions": "3H-ketanserin 0.5 nM, rat cortex membranes, read-out: Binding IC50, 3H Ket."}, "DA D-2": {"target": "T2, DA D-2 (Rattus norvegicus, UniProt P61169)", "T2 construct": "Male Wistar rats (Mol:Wist) weighing about 200 g at the time of operation are used; from tissue; host or cells: living male Wistar (Mol:Wist) rats with unilateral 6-OHDA lesions (in vivo, endogenous receptor)", "T2 sequence (P61169 whole entry)": "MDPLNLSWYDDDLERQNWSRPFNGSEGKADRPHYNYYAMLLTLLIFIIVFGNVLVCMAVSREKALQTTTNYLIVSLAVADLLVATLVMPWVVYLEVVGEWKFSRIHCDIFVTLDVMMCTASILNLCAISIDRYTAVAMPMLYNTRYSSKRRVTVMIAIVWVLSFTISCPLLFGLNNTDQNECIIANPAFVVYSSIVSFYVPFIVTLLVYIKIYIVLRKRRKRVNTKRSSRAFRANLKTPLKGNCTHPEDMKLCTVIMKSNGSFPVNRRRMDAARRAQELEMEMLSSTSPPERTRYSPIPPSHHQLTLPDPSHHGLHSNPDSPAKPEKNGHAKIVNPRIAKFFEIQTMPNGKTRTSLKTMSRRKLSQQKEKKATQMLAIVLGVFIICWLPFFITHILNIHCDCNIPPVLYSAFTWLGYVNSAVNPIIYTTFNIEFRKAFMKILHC", "assay": "antagonism of pergolide-induced circling behaviour in rats with unilateral 6-OHDA lesions", "assay_type": "in vivo", "conditions": "sc", "experimental": "ANTAGONISM OF PERGOLIDE-INDUCED CIRCLING BEHAVIOUR IN RATS WITH UNILATERAL 6-OHDA LESIONS\nDopamine (DA) D-2 agonists induce contralateral circling behaviour in rats with 6-OHDA lesions. Pergolide-induced circling is antagonized by DA D-2 antagonists.\nMale Wistar rats (Mol:Wist) weighing about 200 g at the time of operation are used. Unilateral lesions are made in pentobarbital anaesthetized rats by injection of 6-OHDA. HCl 9.7 μg/μl (equivalent to 8 μg free base) per 4 min. into the rostral tip of the substantia nigra. The saline solution contains ascorbic acid 0.2 mg/ml, is bubbled with N2 and is kept ice-cold. The experiments are done when stable contralateral circling responses to pergolide (0.05 μmol/kg, s.c.) are obtained. The circling response is measured in rotometer bowls. Only rats showing more than 400 complete turns in 2 hrs control session are used. Dose-response curves are obtained by alternating test and control sessions on a weekly basis. The antagonists are injected s.c. 2 hrs before the agonist. The effect of individual doses of test drugs is calculated as per cent of the mean effect of control sessions one week before and one week after the test session for each rat. ED50 values are calculated by log-probit analysis. Four to eight rats are used at each dosage."}, "5-HT2": {"target": "T3, 5-HT2 (Rattus norvegicus, UniProt P14842)", "T3 construct": "Four rats, male Wistar (Mol:Wist) SPF rats weighing 170-240 g; from tissue; host or cells: living male Wistar (Mol:Wist) SPF rats (in vivo, endogenous receptor)", "T3 sequence (P14842 whole entry)": "as the sequence (P14842 whole entry) above", "assay": "quipazine inhibition (quipazine-induced head twitches in rats)", "assay_type": "in vivo", "conditions": "sc, 24 h, read-out: Quipazine inhibition ED50, 24h (sc)"}, "[2]": {"conditions": "read-out: Pergolide rot. inhibition ED50, 2h (sc), 6-OHDA lesions, s.c., 2 h before pergolide"}}, "note": "Read-outs that look alike come from different tables or passages of the source.", "data": [{"smiles": "CC(C)N1CCN(CCN2CCC(c3cn(-c4ccc(F)cc4)c4cc(Cl)ccc34)CC2)C1=O", "note": "[Compound 4a, 6-chloro-1-(4-fluorophenyl)-3-[1-[2-[3-(2-propyl)-2-imidazolidinon-1-yl]ethyl]-4-piperidyl]-1H-indole]", "values": [{"measurement": "IC50", "setting": "[1]", "value": 1.5, "unit": "nM"}, {"measurement": "ED50", "setting": "DA D-2; 2 h, read-out: Pergolide rot. inhibition ED50, 2h (sc)", "value": "> 17", "unit": "µmol/kg"}]}, {"smiles": "Cc1ccc2c(C3CCN(CCN4CCNC4=O)CC3)cn(-c3ccc(F)cc3)c2c1", "note": "[Compound 4g, 1-(4-fluorophenyl)-3-[1-[2-(2-imidazolidinon-1-yl)ethyl]-4-piperidyl]-6-methyl-1H-indole]", "values": [{"measurement": "IC50", "setting": "[1]", "value": 0.8, "unit": "nM"}, {"measurement": "ED50", "setting": "DA D-2; [2]", "value": "> 24", "unit": "µmol/kg"}]}, {"smiles": "Cc1ccc2c(C3CCN(CCN4CCN(C(C)C)C4=O)CC3)cn(-c3ccc(F)cc3)c2c1", "note": "[Compound 5a, 1-(4-fluorophenyl)-6-methyl-3-[1-[2-[3-(2-propyl)-2-imidazolidinon-1-yl]ethyl]-4-piperidyl]-1H-indole]", "values": [{"measurement": "IC50", "setting": "[1]", "value": 1.6, "unit": "nM"}, {"measurement": "ED50", "setting": "DA D-2; [2]", "value": "> 18", "unit": "µmol/kg"}]}, {"smiles": "OCCN1CCN(c2cn(-c3ccc(F)cc3)c3ccc(C(F)(F)F)cc23)CC1", "note": "[Lu 21-152, 1-(4-fluorophenyl)-3-[4-(2-hydroxyethyl)-1-piperazinyl]-5-trifluoromethyl-1H-indole, reference compound]", "values": [{"measurement": "ED50", "setting": "5-HT2", "value": 0.15, "unit": "µmol/kg"}, {"measurement": "IC50", "setting": "[1]", "value": 1.4, "unit": "nM"}, {"measurement": "ED50", "setting": "DA D-2; [2]", "value": 0.02, "unit": "µmol/kg"}]}]}
